Literature values in patent US20060122127A1, “Methods for reducing the side effects associated with mirtzapine treatment” (Cypress Bioscience, Inc., priority 2004, published 2006).

Experiments:
[1] = obese patients
[2] = test system: clonic seizures induced by subcutaneous pentylenetetrazol; details: animals
[3] = test system: tonic extension seizures induced by maximal electroshock; details: animals
[4] = 100-200 mg/d, patients with neuropathic pain

| SMILES | loss of body weight ([1]; 32 week extension phase (placebo 1.8% loss)) [%] | reduction of body weight ([1]; following 16 weeks of therapy (placebo 1% loss)) [%] | anticonvulsant activity against clonic seizures [2] | anticonvulsant activity against tonic extension seizures [3] | patients whose subjective ratings of pain improved by at least 50% [4] [%] | patients with weight gain of greater than or equal to 7% of body weight (controlled studies (placebo 0%)) [%] | patients reporting appetite increase (controlled studies (placebo 2%)) [%] |
| --- | --- | --- | --- | --- | --- | --- | --- |
| NS(=O)(=O)Cc1noc2ccccc12 [zonisamide, 1,2-benzisoxazole-3-methanesulfonamide] | 9.4 | 6 | ineffective | effective | 59 | – | – |
| CN(C)CCC=C1c2ccccc2CCc2ccccc21 [amitriptyline] | – | – | – | – | – | 5.9 | 6 |
